Results: patent US20110183969A1, “ANTIFUNGAL COMBINATION THERAPY” (priority 2008, published 2011)
≈ marks a conversion by molar mass, not a printed value. Where two headings read alike, the source gives them in different places.

What was measured:
Experiment in all cases: MIC (YAG medium)
Assay type in all cases: cell-based
[1] = system: Aspergillus flavus; details: for MIC: Aspergillus flavus, read-out: MIC A. flavus (grade)
Experimental: (§1) Between 1 and 5 mgs of compound were accurately weighed out into a sterile Eppendorf tube. The compound was dissolved in DMSO to give a solution containing 5 mg/mL. Tubes were stored at −20° C. until required.
(§2) On the day of testing thawed solutions were vortex mixed to ensure homogeneity. 30 μL of solution was removed and added to 570 μL of sterile water in a separate sterile Eppendorf The thoroughly mixed solution was used to prepare a series of doubling dilutions in water, in a deep well plate. […] replicate plates were prepared using a Minitrak by aspirating 20 μL from each well into eleven clear polystyrene 96 well plates.
(§3) Spores of Aspergillus spp. (Aspergillus fumigatus [two strains], Aspergillus terreus [two strains], Aspergillus niger and Aspergillus flavus) were harvested from cultures grown on Sabarauds agar for 5 days, and resuspended in PBS/Tween 80 to approx 1×10^7 cfu/mL. Other filamentous fungi (Absidia corymbifera, Fusarium solani, Rhizomucor, Scedosporium spp., Trichophyton spp.), were grown on Sabarauds agar for 2-10 days and spores/hyphae resuspended in PBS/Tween to give approx 1×10^7 cfu/mL. Candida species (Candida albicans, Candida glabrata, Candida krusei, Candida parapsilosis and Candida tropicalis) were grown on Sabarauds agar, cells were harvested from the agar using a sterile loop and resuspended in PBS/Tween 80 to approx 1×10^6 cfu/mL. Each organism suspension was diluted in RPMI medium, containing 2% glucose and 0.135 M MOPS buffer (pH 7.0) to 0.5−2×10^4 cfu/mL for Aspergillus spp. and other filamentous fungi and 0.5-2×10^3 cfu/mL for yeast. 80 μL of an organism suspension was added to each well of the plate containing drug dilutions.
(§4) This produced MIC plates with a drug range 50-0.05 mg/L and organism inocula of 1-2×10^4 cfu/mL for Aspergillus spp. and other filamentous fungi and 1-2×10^3 cfu/mL for yeasts. All plates were incubated for 24-48 hrs at 35° C. Growth was assessed by monitoring the optical density at 485 nm for each well. The MIC of a compound is the lowest drug concentration that inhibits growth of an organism by >80% compared with a drug free control. MICs are recorded as mg/L. Other growth media can be used for susceptibility testing, and the activity of the described compounds can also be assessed in a medium comprising 1% glucose, 1% ammonium chloride and 0.5% yeast extract (YAG medium). To perform MIC tests in this medium, dilutions of compounds are prepared in microtitre plates as described above. Fungal strains to be tested are grown and harvested in an identical manner to that described above, each organism suspension is then diluted in YAG medium to 0.5-2×10^4 cfu/mL for Aspergillus spp. and other filamentous fungi and 0.5-2×10^3 cfu/mL for yeast. 80 μL of an organism suspension was added to each well of the plate containing drug dilutions. This produced MIC plates with a drug range 50-0.05 mg/L and organism inocula of 1-2×10^4 cfu/mL for Aspergillus spp. and other filamentous fungi and 1-2×10^3 cfu/mL for yeasts. All plates were incubated for 24 hrs at 35° C. Growth was assessed by monitoring the optical density at 485 nm for each well. The MIC of a compound is the lowest drug concentration that inhibits growth of an organism by >70% compared with a drug free control. MICs are recorded as mg/L. In cases where the MIC of an organism is […] mg/L the MIC is repeated using a concentration range of 0.5-0.0005 mg/L. MIC tests in YAG medium have more clear-cut endpoints and have slightly lower MICs than those performed in RPMI medium.
(§5) The following organisms were tested: Absidia corymbifera, Aspergillus flavus, Aspergillus fumigatus AF293 and AF210, Aspergillus niger, Aspergillus terreus AT4 and AT49, Candida albicans, Candida glabrata, Candida krusei, Candida parapsilosis, Candida tropicalis, Fusarium solani, Rhizomucor sp., Scedosporium apiospermum, Scedosporium prolificans, Trichophyton mentagrophytes, and Trichophyton rubrum.

[2] = system: Aspergillus fumigatus AF210; details: for MIC: Aspergillus fumigatus
Experimental: as §1, §2, §3, §4, §5

[3] = system: Aspergillus fumigatus AF293; details: for MIC: Aspergillus fumigatus
Experimental: as §1, §2, §3, §4, §5

[4] = system: Aspergillus niger; details: for MIC: Aspergillus niger, read-out: MIC A. niger (grade)
Experimental: as §1, §2, §3, §4, §5

[5] = system: Aspergillus terreus AT49; details: for MIC: Aspergillus terreus
Experimental: as §1, §2, §3, §4, §5

[6] = system: Aspergillus terreus AT4; details: for MIC: Aspergillus terreus
Experimental: as §1, §2, §3, §4, §5

[7] = YAG medium, MIC banded into grades
[8] = YAG medium, MIC banded into grades, AF210
[9] = YAG medium, MIC banded into grades, AF293
[10] = YAG medium, MIC banded into grades, AT49
[11] = YAG medium, MIC banded into grades, AT4
[12] = YAG medium, MIC banded into grades, AF210, read-out: MIC A. fumigatus 210 (grade)
[13] = YAG medium, MIC banded into grades, AF293, read-out: MIC A. fumigatus (grade)
[14] = YAG medium, MIC banded into grades, AT49, read-out: MIC A. terreus 49 (grade)
[15] = YAG medium, MIC banded into grades, AT4, read-out: MIC A. terreus (grade)

| Compound | MIC A. flavus (grade) [1, 7] | MIC A. fumigatus 210 (grade) [2, 8] | MIC A. fumigatus (grade) [3, 9] | MIC A. niger (grade) [4, 7] | MIC A. terreus 49 (grade) [5, 10] | MIC A. terreus (grade) [6, 11] | MIC [1, 7] | MIC [2, 12] | MIC [3, 13] | MIC [4, 7] | MIC [5, 14] | MIC [6, 15] | also measured |
| --- | --- | --- | --- | --- | --- | --- | --- | --- | --- | --- | --- | --- | --- |
| Cc1nc(C(C)C)cn1C(C)(C)c1cccc(NC(=O)C(=O)c2c(-c3ccccc3)cc3ccccn23)c1 [Example 25] | 2 (A grade of 2 represents an MIC of from 1 to 10) | 1 (a grade of 1 represents an MIC of greater than 10 mg/L) | 1 (a grade of 1 represents an MIC of greater than 10 mg/L) | 1 (a grade of 1 represents an MIC of greater than 10 mg/L) | 2 (A grade of 2 represents an MIC of from 1 to 10) | 2 (A grade of 2 represents an MIC of from 1 to 10) | – | – | – | – | – | – | – |
| O=C(Nc1ccc(N2CCC(N3CCOCC3)CC2)cc1)C(=O)c1c(-c2ccccc2Cl)cc2ccccn12 [Example 26, 2-[2-(2-Chloro-phenyl)-indolizin-3-yl]-N-[4-(4-morpholin-4-yl-piperidin-1-yl)-phenyl]-2-oxo-acetamide] | – | – | – | – | – | – | < 1 µg/mL | < 1 µg/mL | 1 to 10 µg/mL (≈ 1.84 to 18.4 µM) | 1 to 10 µg/mL (≈ 1.84 to 18.4 µM) | < 1 µg/mL | 1 to 10 µg/mL (≈ 1.84 to 18.4 µM) | – |
| CCN(CC)C(=O)Oc1cc(-c2ccc(NC(=O)C(=O)c3c(-c4ccccc4)cc4ccccn34)cc2)on1 [Example 27, Diethyl-carbamic acid-5-{4-[2-oxo-2-(2-phenyl-indolizin-3-yl)-acetylamino]-phenyl}-isoxazol-3-yl ester] | – | – | – | – | – | – | – | – | – | – | – | – | MIC [1]: < 1 µg/mL; MIC ([2]; AF210, read-out: MIC A. fumigatus 210 (grade)): < 1 µg/mL; MIC ([3]; AF293, read-out: MIC A. fumigatus (grade)): < 1 µg/mL; MIC [4]: < 1 µg/mL; MIC ([5]; AT49, read-out: MIC A. terreus 49 (grade)): < 1 µg/mL; MIC ([6]; AT4, read-out: MIC A. terreus (grade)): < 1 µg/mL |
| CCOCCN(C1=NC(C)(C)CO1)c1ccc(NC(=O)C(=O)c2c(-c3ccccc3)cc3ccccn23)cc1 [Example 28] | 2 (A grade of 2 represents an MIC of from 1 to 10) | 2 (A grade of 2 represents an MIC of from 1 to 10) | 2 (A grade of 2 represents an MIC of from 1 to 10) | 3 (A grade of 3 represents an MIC of less than 1 mg/L) | 2 (A grade of 2 represents an MIC of from 1 to 10) | 2 (A grade of 2 represents an MIC of from 1 to 10) | – | – | – | – | – | – | – |
| CN1CCN(c2oc(-c3ccc(NC(=O)C(=O)c4c(-c5ccccc5)cc5ccccn45)cc3)nc2C(=O)C(F)(F)F)CC1 [Example 29, N-{4-[5-(4-Methyl-piperazin-1-yl)-4-(2,2,2-trifluoro-acetyl)-oxazol-2-yl]-phenyl}-2-oxo-2-(2-phenyl-indolizin-3-yl)-acetamide] | – | – | – | – | – | – | < 1 µg/mL | 1 to 10 µg/mL (≈ 1.66 to 16.6 µM) | < 1 µg/mL | < 1 µg/mL | < 1 µg/mL | < 1 µg/mL | – |
| O=C(Nc1ccc(N2CCN(Cc3ccco3)CC2)cc1)C(=O)c1c(-c2ccccc2)cc2ccccn12 [Example 31, 4-[4-(2-Furan-2-yl-methyl-piperazin-yl)-phenyl]-2-oxo-2-(2-phenyl-indolizin-3-yl)-acetamide] | 3 (A grade of 3 represents an MIC of less than 1 mg/L) | 3 (A grade of 3 represents an MIC of less than 1 mg/L) | 3 (A grade of 3 represents an MIC of less than 1 mg/L) | 3 (A grade of 3 represents an MIC of less than 1 mg/L) | 3 (A grade of 3 represents an MIC of less than 1 mg/L) | 3 (A grade of 3 represents an MIC of less than 1 mg/L) | – | – | – | – | – | – | – |
| Cc1cc(C)nc(N2CCN(c3ccc(NC(=O)C(=O)c4c(-c5ccccc5)cc5ccc(F)cn45)cc3)CC2)c1 [Example 32, N-{4-[4-(4,6-Dimethyl-pyridin-2-yl)-piperazin-1-yl]-phenyl}-2-(6-fluoro-2-phenyl-indolizin-3-yl)-2-oxo-acetamide] | – | – | – | – | – | – | < 1 µg/mL | < 1 µg/mL | < 1 µg/mL | < 1 µg/mL | < 1 µg/mL | < 1 µg/mL | – |
| O=C(Nc1ccc(N2CCN(Cc3cccs3)CC2)cc1)C(=O)c1c(-c2ccccc2)cc2ccccn12 [Example 33, 2-Oxo-2-(2-phenylindolizin-3-yl)-N-[4-(4-thiophen-2-ylmethylpiperazin-1-yl)phenyl] acetamide] | 3 (A grade of 3 represents an MIC of less than 1 mg/L) | 3 (A grade of 3 represents an MIC of less than 1 mg/L) | 3 (A grade of 3 represents an MIC of less than 1 mg/L) | 3 (A grade of 3 represents an MIC of less than 1 mg/L) | 3 (A grade of 3 represents an MIC of less than 1 mg/L) | 3 (A grade of 3 represents an MIC of less than 1 mg/L) | – | – | – | – | – | – | – |
| O=C(Nc1ccc(N2CCN(Cc3ccco3)CC2)cn1)C(=O)c1c(-c2ccccc2)cc2ccccn12 [Example 34, N-[5-(2-Furan-2-yl-methyl-piperazin-yl)-peridin-2-yl]-2-oxo-2-(2-phenylindolizin-3-yl)-acetamide] | 3 (A grade of 3 represents an MIC of less than 1 mg/L) | 3 (A grade of 3 represents an MIC of less than 1 mg/L) | 3 (A grade of 3 represents an MIC of less than 1 mg/L) | 3 (A grade of 3 represents an MIC of less than 1 mg/L) | 3 (A grade of 3 represents an MIC of less than 1 mg/L) | 3 (A grade of 3 represents an MIC of less than 1 mg/L) | – | – | – | – | – | – | – |
| Cc1ccccc1-c1cc2ccccn2c1C(=O)C(=O)Nc1ccc(N2CCN(Cc3ccco3)CC2)cn1 [Example 35, N-[5-(2-Furan-2-yl-methyl-piperazin-yl)-peridin-2-yl]-2-oxo-2-(2-o-tolyl-indolizin-3-yl)-acetamide] | 3 (A grade of 3 represents an MIC of less than 1 mg/L) | 3 (A grade of 3 represents an MIC of less than 1 mg/L) | 3 (A grade of 3 represents an MIC of less than 1 mg/L) | 3 (A grade of 3 represents an MIC of less than 1 mg/L) | 3 (A grade of 3 represents an MIC of less than 1 mg/L) | 3 (A grade of 3 represents an MIC of less than 1 mg/L) | – | – | – | – | – | – | – |
